Series [1] has as its system Stanford Cardiovascular Institute [SCI] human stem cell-derived cardiomyocytes. Conditions: for EAD occurrence (proportion of replicates exhibiting EADs): study 10, SCI, AXN.
For series [2], the system named is human induced pluripotent stem cell-derived cardiomyocytes (hiPSC-CMs).
For series [3] the following is noted: free clinical Cmax; ref Kramer et al. (2013); cited from earlier work.
Series [4] deals with Cellular Dynamics International [CDI] human stem cell-derived cardiomyocytes.
In series [5] the test system is Axiogenesis [AXG] human stem cell-derived cardiomyocytes. Particulars: for FPDc20 concentration (20% increase in FPDc): human; for EAD occurrence (proportion of replicates exhibiting EADs): AXG.
The mark [6] stands for this setting: 20% increase in FPDc, median across qualified studies.

Like-named read-outs stand apart in the source and are kept apart here. Marks after values point to notes of the source that are not given here.

`COC(=O)C1=C(C)NC(C)=C(C(=O)OC)C1c1ccccc1[N+](=O)[O-]` [Nifedipine]: the “FPDc20 concentration (20% decrease in FPDc)” value in series [1] (human) was 0.3 µM. Also, the EAD occurrence entry in series [2] is on record as “No EADs”. Besides, in series [2] (human), the “FPDc20: median” value amounted to 0.1 µM and the “FPDc20: span” value came out at 0.5 log unit.

On to `COc1c(N2C[C@@H]3CCCN[C@@H]3C2)c(F)cc2c(=O)c(C(=O)O)cn(C3CC3)c12` [Moxifloxacin], for which the “Free Drug (free Cmax)” value in series [3] is 10.96* µM. Also, the “FPDc20 concentration (20% increase in FPDc)” value in series [1] (human) is on record as 30 µM; in series [5] it was 100 µM. Besides, the “EAD occurrence (proportion of replicates exhibiting EADs)” value is on record as 1/3 in series [1] (30 µM); 2/3 in series [1] (100 µM); 3/3 in series [4] (study 6, CDI, AXN, 100 µM); 1/3 in series [4] (study 9, CDI, ACA, 30 µM); 2/3 in series [4] (study 9, CDI, ACA, 100 µM). Also, the “FPDc20: median” value in series [2] (setting [6]) is 100 µM.

Consider `CC(C)(Oc1ccc(Cl)cc1)C(=O)NC1C2CC3CC1CC(NS(C)(=O)=O)(C3)C2` (stereo not shown) [JNJ303], for which the “prolongation of FPD and FPDc” value in series [4] (single example study, CDI myocytes, highest concentration tested (300 nM)) is listed as around 10%. In addition, in series [2] (across all studies, any concentration), the EAD occurrence result was “No EADs”.

Regarding `O=C(NCC1CCCCN1)c1cc(OCC(F)(F)F)ccc1OCC(F)(F)F` (stereo not shown) [Flecainide], the “FPDc20 concentration (20% increase in FPDc)” value in series [1] (human) came to 1 µM. The “EAD occurrence (proportion of replicates exhibiting EADs)” value is 1/3 in series [1] (1 µM); 2/3 in series [1] (3 µM); 2/4 in series [4] (study 5, CDI, AXN, 1 µM); 1/4 in series [4] (study 5, CDI, AXN, 3 µM); 1/3 in series [4] (study 6, CDI, AXN, 1 µM); 1/3 in series [4] (study 6, CDI, AXN, 3 µM). Moreover, the “EAD occurrence (proportion of replicates exhibiting EADs)” value in series [4] (study 7, CDI, MCS, 3 µM) is 3/3; in series [4] (study 8, CDI, MCS, 3 µM) it was 4/4; in series [4] (study 9, CDI, ACA, 3 µM), 3/3; in series [5] (study 4, MCS, 3 µM), 1/3. In addition, the “FPDc20: median” value in series [2] (setting [6]) was 1 µM.

As for `C=C[C@H]1C[N@@]2CC[C@H]1C[C@@H]2[C@@H](O)c1ccnc2ccc(OC)cc12` [Quinidine], the “Free Drug (free Cmax)” value in series [3] is 3.237* µM. Further, the “FPDc20 concentration (20% increase in FPDc)” value in series [1] (human) is 1 µM. Moreover, the “EAD occurrence (proportion of replicates exhibiting EADs)” value in series [1] (1 µM) is reported as 2/3; in series [1] (3 µM) it was 3/3; in series [4] (study 5, CDI, AXN, 10 µM), 2/3; in series [4] (study 6, CDI, AXN, 1 µM), 3/3; in series [4] (study 6, CDI, AXN, 3 µM), 3/3; in series [4] (study 7, CDI, MCS, 3 µM), 1/3. Moreover, the “EAD occurrence (proportion of replicates exhibiting EADs)” value is 3/3 in series [4] (study 7, CDI, MCS, 10 µM); 4/4 in series [4] (study 8, CDI, MCS, 10 µM); 1/3 in series [4] (study 9, CDI, ACA, 1 µM); 3/3 in series [4] (study 9, CDI, ACA, 3 µM); 2/3 in series [4] (study 9, CDI, ACA, 10 µM); 3/3 in series [5] (study 1, AXN, 10 µM). Moreover, the “EAD occurrence (proportion of replicates exhibiting EADs)” value in series [5] (study 2, AXN, 10 µM) is recorded as 2/3; in series [5] (study 4, MCS, 10 µM), 3/3. Also, the “FPDc20: median” value in series [2] (setting [6]) was determined as 1 µM. The “FPDc20: span” value in series [2] (20% increase in FPDc, span across qualified studies) was found to be 1 log unit.

Regarding `Cc1cccc(C)c1OCC(C)N` (stereo not shown) [Mexiletine], the “EAD occurrence (proportion of replicates exhibiting EADs)” value in series [4] (human) was 3/3. For the same compound, in series [2] (human), the “FPDc20: median” value worked out at 30 µM, the “FPDc20: span” value amounted to 0.5 log unit and the “studies in which FPDc20 was detected” value is reported as 3 of 8. In series [5], the “FPDc20 concentration (20% increase in FPDc)” value turned out to be 30 µM.

As for `COc1ccccc1OCC(O)CN1CCN(CC(=O)Nc2c(C)cccc2C)CC1` (stereo not shown) [Ranolazine], the “FPDc20 concentration (20% increase in FPDc)” value in series [1] (human) is given as 10 µM. In addition, the “EAD occurrence (proportion of replicates exhibiting EADs)” value in series [1] (10 µM) was 1/3; in series [1] (30 µM) it was 2/3; in series [4] (study 6, CDI, AXN, 10 µM) it was 3/3; in series [4] (study 6, CDI, AXN, 30 µM), 3/3; in series [4] (study 7, CDI, MCS, 30 µM) it was 3/3; in series [4] (study 8, CDI, MCS, 30 µM) it was 5/5. For the same compound, the “EAD occurrence (proportion of replicates exhibiting EADs)” value in series [4] (study 9, CDI, ACA, 10 µM) is 3/3; in series [4] (study 9, CDI, ACA, 30 µM) it was 2/3; in series [5] (study 4, MCS, 30 µM) it was 3/4. Moreover, the “FPDc20: median” value in series [2] (setting [6]) is 10 µM.

(Values after article PMC6061700 (Toxicological Sciences, 2018).)
